Usually EC50 stands for the concentration giving half of the maximal effect. Low readings indicate a more potent agent, high ones a less potent agent.

This assay addresses human PD-L1 (Homo sapiens (Human), UniProt Q9NZQ7). Put plainly: T cell activation luciferase reporter cell culture system (T Cell Activation Assay). In kind it is cell-based. As to conditions: luciferase reporter assay; PD-L1 aAPC/CHO-K1 cells with PD-1 effector Jurkat T cells. On the technique in general: Reporter assays use an easily measured gene product as a stand-in for the process of interest.

Chain of human PD-L1 (Q9NZQ7 19-290): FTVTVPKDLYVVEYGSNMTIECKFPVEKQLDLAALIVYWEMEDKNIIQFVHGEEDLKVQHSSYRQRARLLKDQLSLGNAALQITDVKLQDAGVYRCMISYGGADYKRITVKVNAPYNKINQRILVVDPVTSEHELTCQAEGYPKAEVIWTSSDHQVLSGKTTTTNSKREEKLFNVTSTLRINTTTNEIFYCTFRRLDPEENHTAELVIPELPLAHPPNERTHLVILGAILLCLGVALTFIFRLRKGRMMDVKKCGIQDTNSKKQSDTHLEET

In turn, `COc1nc(-c2cccc(-c3ccnc(-c4cc(OC)c5nc(CN6CC(C(=O)O)C6)cn5c4)c3Cl)c2Cl)ccc1CNC[C@@H]1CCC(=O)N1` [Example 350, (S)-1-((6-(3-Chloro-4-(2-chloro-3-(6-methoxy-5-((((5-oxopyrrolidin-2-yl)methyl)amino)methyl)pyridin-2-yl)phenyl)pyridin-2-yl)-8-methoxyimidazo[1,2-a]pyridin-2-yl)methyl)azetidine-3-carboxylic acid] returned a concentration giving a half-maximal response (EC50) of 89.2 nM. In turn, `COc1nc(-c2cccc(-c3ccnc(-c4cc(OC)c5nc(CNCCC6(C(=O)O)CC6)cn5c4)c3Cl)c2Cl)ccc1CNC[C@@H]1CCC(=O)N1` [Example 351, (S)-1-(2-(((6-(3-Chloro-4-(2-chloro-3-(6-methoxy-5-((((5-oxopyrrolidin-2-yl)methyl)amino)methyl)pyridin-2-yl)phenyl)pyridin-2-yl)-8-methoxyimidazo[1,2-a]pyridin-2-yl)methyl)amino)ethyl)cyclopropane-1-carboxylic acid] had an EC50 of 146 nM.

`COc1cc(-c2nccc(-c3cccc(-c4ccc(CNC5CCN(C(=O)C6CCC6)CC5)c(OC)n4)c3Cl)c2Cl)ccc1CNC1CCN(C(=O)C2CCC2)CC1` [Example 352, (4-(((6-(2-Chloro-3-(3-chloro-2-(4-(((1-(cyclobutanecarbonyl)piperidin-4-yl)amino)methyl)-3-methoxyphenyl)pyridin-4-yl)phenyl)-2-methoxypyridin-3-yl)methyl)amino)piperidin-1-yl)(cyclobutyl)methanone] gave a 50% effective concentration (EC50) of 134 nM.

`COc1cc(-c2nccc(-c3cccc(-c4ccc(CNC[C@H]5CCC(=O)N5)c(OC)n4)c3Cl)c2Cl)ccc1CNC[C@H]1CCC(=O)N1` [Example 354, (R)-5-((((6-(2-Chloro-3-(3-chloro-2-(3-methoxy-4-(((((R)-5-oxopyrrolidin-2-yl)methyl)amino)methyl)phenyl)pyridin-4-yl)phenyl)-2-methoxypyridin-3-yl)methyl)amino)methyl)pyrrolidin-2-one] gave an EC50 of 26.3 nM.

`COc1cc(-c2nccc(-c3cccc(-c4ccc(CN5CCC(NC(C)=O)CC5)c(OC)n4)c3Cl)c2Cl)ccc1CNC[C@H]1CCC(=O)N1` [Example 356, (R)—N-(1-((6-(2-Chloro-3-(3-chloro-2-(3-methoxy-4-((((5-oxopyrrolidin-2-yl)methyl)amino)methyl)phenyl)pyridin-4-yl)phenyl)-2-methoxypyridin-3-yl)methyl)piperidin-4-yl)acetamide] returned an EC50 of 25.5 nM.

With `COc1cc(-c2nccc(-c3cccc(-c4ccc(CN5CCC(NC(C)=O)CC5)c(OC)n4)c3Cl)c2Cl)ccc1CNC[C@@H]1CCC(=O)N1` [Example 357, (S)—N-(1-((6-(2-Chloro-3-(3-chloro-2-(3-methoxy-4-((((5-oxopyrrolidin-2-yl)methyl)amino)methyl)phenyl)pyridin-4-yl)phenyl)-2-methoxypyridin-3-yl)methyl)piperidin-4-yl)acetamide], the concentration for a half-maximal effect (EC50) was 9.1 nM. The result for `COc1cc(-c2nccc(-c3cccc(-c4ccc(CNC5CC(=O)NC(=O)C5)c(OC)n4)c3Cl)c2Cl)ccc1CNC1CC(=O)NC(=O)C1` [Example 359, 4-(((6-(2-Chloro-3-(3-chloro-2-(4-(((2,6-dioxopiperidin-4-yl)amino)methyl)-3-methoxyphenyl)pyridin-4-yl)phenyl)-2-methoxypyridin-3-yl)methyl)amino)piperidine-2,6-dione] reads 40.4 nM; that for `COc1cc(-c2nccc(-c3cccc(-c4ccc(CNC5CCN(C(C)=O)CC5)c(OC)n4)c3Cl)c2Cl)ccc1CN[C@H]1CC[C@H](O)CC1` [Example 360, 1-(4-(((6-(2-Chloro-3-(3-chloro-2-(4-((((1r,4r)-4-hydroxycyclohexyl)amino)methyl)-3-methoxyphenyl)pyridin-4-yl)phenyl)-2-methoxypyridin-3-yl)methyl)amino)piperidin-1-yl)ethan-1-one], 31 nM.
